Measurements: patent US11691980B2, “Liphagal analog and multi-targeted kinase inhibitor containing liphagal or analog thereof” (TOHOKU UNIVERSITY, priority 2017, dated 2023)

Key:
Assay type in all cases: biochemical
[1] = target: T1, NEK4 (Homo sapiens, UniProt P51957); assay: mobility shift assay
T1 construct: purchased Carna Biosciences

[2] = target: T2, PASK (Homo sapiens, UniProt Q96RG2); assay: mobility shift assay
T2 construct: purchased Carna Biosciences

[3] = target: T3, EPHA8 (Homo sapiens, UniProt P29322); assay: mobility shift assay
T3 construct: purchased Carna Biosciences

[4] = target: T4, DCAMKL2 (Homo sapiens, UniProt Q8N568); assay: mobility shift assay
T4 construct: purchased Carna Biosciences

[5] = target: T5, FGFR3(K650M) (Homo sapiens, UniProt P22607, K650M); assay: mobility shift assay
T5 construct: purchased Carna Biosciences
T5 sequence (P22607 23-806 K650M): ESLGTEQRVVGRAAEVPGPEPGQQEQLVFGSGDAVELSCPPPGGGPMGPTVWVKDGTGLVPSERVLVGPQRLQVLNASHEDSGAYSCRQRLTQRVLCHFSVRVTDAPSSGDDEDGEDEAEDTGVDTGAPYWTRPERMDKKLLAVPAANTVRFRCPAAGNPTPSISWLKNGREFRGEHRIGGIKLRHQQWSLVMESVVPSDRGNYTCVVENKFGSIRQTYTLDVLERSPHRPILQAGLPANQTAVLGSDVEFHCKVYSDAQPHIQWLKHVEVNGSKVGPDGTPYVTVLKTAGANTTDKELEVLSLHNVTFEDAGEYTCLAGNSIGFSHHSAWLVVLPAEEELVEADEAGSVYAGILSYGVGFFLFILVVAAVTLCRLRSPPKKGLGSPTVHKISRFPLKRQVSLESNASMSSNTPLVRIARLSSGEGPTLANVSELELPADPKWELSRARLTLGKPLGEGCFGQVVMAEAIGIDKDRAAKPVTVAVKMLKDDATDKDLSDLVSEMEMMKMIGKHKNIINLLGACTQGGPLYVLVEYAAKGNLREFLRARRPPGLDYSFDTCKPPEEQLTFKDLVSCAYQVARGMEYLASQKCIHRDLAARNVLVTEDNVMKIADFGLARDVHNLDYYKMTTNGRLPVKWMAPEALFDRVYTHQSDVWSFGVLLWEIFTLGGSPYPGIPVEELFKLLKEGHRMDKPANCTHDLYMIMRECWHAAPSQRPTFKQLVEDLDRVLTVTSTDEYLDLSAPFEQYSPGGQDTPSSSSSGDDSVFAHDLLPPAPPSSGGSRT

[6] = target: T6, RAF1_Cascade (Homo sapiens, UniProt P04049); assay: mobility shift assay
T6 construct: purchased Carna Biosciences

[7] = target: T7, DDR2 (Homo sapiens, UniProt Q16832); assay: mobility shift assay
T7 construct: purchased Carna Biosciences

[8] = target: T8, NDR2 (Homo sapiens, UniProt Q9Y2H1); assay: mobility shift assay
T8 construct: purchased Carna Biosciences

[9] = target: T9, p38γ (Homo sapiens, UniProt P53778); assay: mobility shift assay
T9 construct: purchased Carna Biosciences

[10] = target: T10, MAPKAPK2 (Homo sapiens, UniProt P49137); assay: mobility shift assay
T10 construct: purchased Carna Biosciences

[11] = target: T11, GSK3α (Homo sapiens, UniProt P49840); assay: mobility shift assay
T11 construct: purchased Carna Biosciences

[12] = target: T12, PAK4 (Homo sapiens, UniProt O96013); assay: mobility shift assay
T12 construct: purchased Carna Biosciences

[13] = target: T13, PHKG2 (Homo sapiens, UniProt P15735); assay: mobility shift assay
T13 construct: purchased Carna Biosciences

[14] = target: T14, IGF1R (Homo sapiens, UniProt P08069); assay: mobility shift assay
T14 construct: purchased Carna Biosciences

[15] = target: T15, KIT (Homo sapiens, UniProt P10721); assay: mobility shift assay
T15 construct: purchased Carna Biosciences

[16] = target: T16, RET (Homo sapiens, UniProt P07949); assay: mobility shift assay
T16 construct: purchased Carna Biosciences

[17] = target: T17, EPHA7 (Homo sapiens, UniProt Q15375); assay: mobility shift assay
T17 construct: purchased Carna Biosciences
T17 sequence (Q15375 28-998): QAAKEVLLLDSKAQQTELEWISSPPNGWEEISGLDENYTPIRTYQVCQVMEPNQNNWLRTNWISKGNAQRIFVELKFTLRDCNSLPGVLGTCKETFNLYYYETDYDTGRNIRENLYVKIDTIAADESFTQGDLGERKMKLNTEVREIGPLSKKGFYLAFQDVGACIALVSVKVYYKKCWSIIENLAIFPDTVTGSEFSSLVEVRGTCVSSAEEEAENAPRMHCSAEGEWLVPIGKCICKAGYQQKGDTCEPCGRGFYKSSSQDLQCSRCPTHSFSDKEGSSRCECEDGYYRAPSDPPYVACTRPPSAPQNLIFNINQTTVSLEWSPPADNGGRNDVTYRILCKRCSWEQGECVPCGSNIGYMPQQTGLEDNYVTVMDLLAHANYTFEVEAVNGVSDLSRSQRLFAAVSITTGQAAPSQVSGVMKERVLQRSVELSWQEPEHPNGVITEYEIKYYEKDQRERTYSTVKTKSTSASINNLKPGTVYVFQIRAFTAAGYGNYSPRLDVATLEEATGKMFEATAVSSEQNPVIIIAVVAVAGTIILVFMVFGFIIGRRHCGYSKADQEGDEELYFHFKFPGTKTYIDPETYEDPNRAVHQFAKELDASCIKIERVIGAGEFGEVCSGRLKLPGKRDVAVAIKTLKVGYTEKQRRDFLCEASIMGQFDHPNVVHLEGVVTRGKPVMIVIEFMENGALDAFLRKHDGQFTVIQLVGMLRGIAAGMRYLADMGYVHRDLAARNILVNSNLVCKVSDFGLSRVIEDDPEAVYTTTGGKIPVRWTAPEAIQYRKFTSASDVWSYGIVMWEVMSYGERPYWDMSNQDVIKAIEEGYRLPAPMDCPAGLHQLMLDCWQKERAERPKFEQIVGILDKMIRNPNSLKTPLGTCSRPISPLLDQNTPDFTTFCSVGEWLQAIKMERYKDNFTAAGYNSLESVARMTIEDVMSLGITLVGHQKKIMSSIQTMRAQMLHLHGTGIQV

[18] = target: T18, PLK3 (Homo sapiens, UniProt Q9H4B4); assay: mobility shift assay
T18 construct: purchased Carna Biosciences
T18 sequence (Q9H4B4 whole entry): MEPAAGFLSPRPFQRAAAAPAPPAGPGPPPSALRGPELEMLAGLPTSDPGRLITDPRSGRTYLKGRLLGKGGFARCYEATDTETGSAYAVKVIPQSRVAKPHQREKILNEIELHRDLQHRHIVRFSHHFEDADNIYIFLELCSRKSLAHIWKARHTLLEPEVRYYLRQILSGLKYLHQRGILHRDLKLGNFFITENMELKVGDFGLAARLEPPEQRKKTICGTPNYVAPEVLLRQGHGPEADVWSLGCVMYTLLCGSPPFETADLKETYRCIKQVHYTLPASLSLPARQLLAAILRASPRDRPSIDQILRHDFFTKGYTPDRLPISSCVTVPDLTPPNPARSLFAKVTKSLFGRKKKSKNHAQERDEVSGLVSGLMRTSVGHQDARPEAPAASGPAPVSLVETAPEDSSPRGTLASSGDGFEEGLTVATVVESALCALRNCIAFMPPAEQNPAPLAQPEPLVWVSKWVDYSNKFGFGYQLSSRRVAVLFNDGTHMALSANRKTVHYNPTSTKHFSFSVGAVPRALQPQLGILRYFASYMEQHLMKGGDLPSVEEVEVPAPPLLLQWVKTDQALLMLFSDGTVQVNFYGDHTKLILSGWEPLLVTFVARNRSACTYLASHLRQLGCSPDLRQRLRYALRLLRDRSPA

[19] = target: T19, PKCδ (Homo sapiens, UniProt Q05655); assay: mobility shift assay
T19 construct: purchased Carna Biosciences
T19 sequence (Q05655 whole entry): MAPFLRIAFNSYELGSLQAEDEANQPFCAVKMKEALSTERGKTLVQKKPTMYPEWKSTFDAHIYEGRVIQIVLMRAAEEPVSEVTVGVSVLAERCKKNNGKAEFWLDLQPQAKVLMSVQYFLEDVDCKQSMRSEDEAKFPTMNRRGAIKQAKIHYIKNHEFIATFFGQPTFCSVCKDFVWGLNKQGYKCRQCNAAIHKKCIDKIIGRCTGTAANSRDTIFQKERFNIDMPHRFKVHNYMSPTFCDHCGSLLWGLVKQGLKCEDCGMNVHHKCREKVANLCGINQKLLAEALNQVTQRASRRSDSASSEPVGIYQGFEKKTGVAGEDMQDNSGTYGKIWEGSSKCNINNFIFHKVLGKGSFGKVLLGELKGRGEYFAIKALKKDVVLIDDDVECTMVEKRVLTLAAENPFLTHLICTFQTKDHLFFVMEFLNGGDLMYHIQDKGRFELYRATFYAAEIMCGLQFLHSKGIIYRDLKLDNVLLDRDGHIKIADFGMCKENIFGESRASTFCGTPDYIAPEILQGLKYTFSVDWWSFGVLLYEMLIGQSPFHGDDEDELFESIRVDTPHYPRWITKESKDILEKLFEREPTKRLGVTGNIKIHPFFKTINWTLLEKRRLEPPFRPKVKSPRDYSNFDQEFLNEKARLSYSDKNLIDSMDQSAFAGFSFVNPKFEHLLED

[20] = system: MAP3K3_Cascade; assay: mobility shift assay; conditions: 10 μM
[21] = target: T20, LTK (Homo sapiens, UniProt P29376); assay: mobility shift assay
T20 construct: purchased Carna Biosciences

[22] = target: T21, IRAK1 (Homo sapiens, UniProt P51617); assay: IMAP Assay
T21 construct: purchased Carna Biosciences

[23] = target: T22, HCK (Homo sapiens, UniProt P08631); assay: mobility shift assay
T22 construct: purchased Carna Biosciences

[24] = target: CDK6 (Homo sapiens, UniProt Q00534); assay: IC50 by mobility shift assay; conditions: Table 4, inhibitory activity against CDK6, mobility shift assay; read-out: IC50 (μM), Kinase
CDK6, sequence (Q00534 whole entry): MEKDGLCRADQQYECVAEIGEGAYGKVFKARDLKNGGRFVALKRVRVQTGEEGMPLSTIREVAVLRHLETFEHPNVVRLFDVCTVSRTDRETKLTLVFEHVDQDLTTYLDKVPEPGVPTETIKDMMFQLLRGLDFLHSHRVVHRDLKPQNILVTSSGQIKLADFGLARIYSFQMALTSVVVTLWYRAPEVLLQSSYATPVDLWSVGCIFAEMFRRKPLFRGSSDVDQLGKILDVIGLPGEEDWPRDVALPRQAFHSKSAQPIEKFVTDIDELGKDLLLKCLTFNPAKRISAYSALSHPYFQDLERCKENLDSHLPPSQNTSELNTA
Description: Next, the compounds produced in Production Examples described above were each assessed for its inhibitory activity against CDK6 by mobility shift assay. In addition, a combination showing the highest inhibitory activity is indicated by italics.

[25] = target: T23, COK6/CycD3 (Homo sapiens, UniProt Q00534); assay: mobility shift assay
T23 construct: purchased Carna Biosciences
T23 sequence (Q00534 whole entry): as above
T23 sequence (P30281 whole entry partner): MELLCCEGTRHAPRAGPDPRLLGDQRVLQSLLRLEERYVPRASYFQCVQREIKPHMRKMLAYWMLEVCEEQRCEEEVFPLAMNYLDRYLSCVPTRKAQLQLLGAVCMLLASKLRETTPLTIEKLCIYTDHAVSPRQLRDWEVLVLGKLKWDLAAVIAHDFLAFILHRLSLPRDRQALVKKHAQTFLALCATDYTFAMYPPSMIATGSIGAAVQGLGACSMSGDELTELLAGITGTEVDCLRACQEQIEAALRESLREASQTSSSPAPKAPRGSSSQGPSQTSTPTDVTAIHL

[26] = target: T24, CK1γ2 (Homo sapiens, UniProt P78368); assay: mobility shift assay
T24 construct: purchased Carna Biosciences

[27] = target: T25, SIK (Homo sapiens, UniProt P57059); assay: mobility shift assay
T25 construct: purchased Carna Biosciences

[28] = target: T26, JNK3 (Homo sapiens, UniProt P53779); assay: mobility shift assay
T26 construct: purchased Carna Biosciences

[29] = target: T27, FGR3(K650E) (Homo sapiens, UniProt P22607, K650E); assay: mobility shift assay
T27 construct: purchased Carna Biosciences
T27 sequence (P22607 23-806 K650E): as the sequence (P22607 23-806 K650M) above, with M628E counted along it

[30] = target: T28, TNK1 (Homo sapiens, UniProt Q13470); assay: mobility shift assay
T28 construct: purchased Carna Biosciences

[31] = target: T29, LOK (Homo sapiens, UniProt O94804); assay: mobility shift assay
T29 construct: purchased Carna Biosciences

[32] = target: T30, TSSK1 (Homo sapiens, UniProt Q9BXA7); assay: mobility shift assay
T30 construct: purchased Carna Biosciences

[33] = target: T31, BRK (Homo sapiens, UniProt Q13882); assay: mobility shift assay
T31 construct: purchased Carna Biosciences
T31 sequence (Q13882 whole entry): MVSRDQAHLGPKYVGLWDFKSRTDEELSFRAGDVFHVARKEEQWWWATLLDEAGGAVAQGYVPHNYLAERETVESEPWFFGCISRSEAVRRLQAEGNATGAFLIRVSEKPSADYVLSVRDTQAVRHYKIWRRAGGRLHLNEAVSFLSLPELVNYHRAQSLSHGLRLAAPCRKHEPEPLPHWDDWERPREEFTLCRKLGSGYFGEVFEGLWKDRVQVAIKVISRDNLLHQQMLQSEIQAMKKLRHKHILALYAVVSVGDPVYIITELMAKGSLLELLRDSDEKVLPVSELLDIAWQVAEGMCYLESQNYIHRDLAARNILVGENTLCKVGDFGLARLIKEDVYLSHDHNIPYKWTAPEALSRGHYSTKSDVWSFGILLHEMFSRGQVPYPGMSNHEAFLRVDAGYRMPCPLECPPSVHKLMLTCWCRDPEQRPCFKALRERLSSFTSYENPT

[34] = target: T32, SRPK2 (Homo sapiens, UniProt P78362); assay: mobility shift assay
T32 construct: purchased Carna Biosciences
T32 sequence (P78362 whole entry): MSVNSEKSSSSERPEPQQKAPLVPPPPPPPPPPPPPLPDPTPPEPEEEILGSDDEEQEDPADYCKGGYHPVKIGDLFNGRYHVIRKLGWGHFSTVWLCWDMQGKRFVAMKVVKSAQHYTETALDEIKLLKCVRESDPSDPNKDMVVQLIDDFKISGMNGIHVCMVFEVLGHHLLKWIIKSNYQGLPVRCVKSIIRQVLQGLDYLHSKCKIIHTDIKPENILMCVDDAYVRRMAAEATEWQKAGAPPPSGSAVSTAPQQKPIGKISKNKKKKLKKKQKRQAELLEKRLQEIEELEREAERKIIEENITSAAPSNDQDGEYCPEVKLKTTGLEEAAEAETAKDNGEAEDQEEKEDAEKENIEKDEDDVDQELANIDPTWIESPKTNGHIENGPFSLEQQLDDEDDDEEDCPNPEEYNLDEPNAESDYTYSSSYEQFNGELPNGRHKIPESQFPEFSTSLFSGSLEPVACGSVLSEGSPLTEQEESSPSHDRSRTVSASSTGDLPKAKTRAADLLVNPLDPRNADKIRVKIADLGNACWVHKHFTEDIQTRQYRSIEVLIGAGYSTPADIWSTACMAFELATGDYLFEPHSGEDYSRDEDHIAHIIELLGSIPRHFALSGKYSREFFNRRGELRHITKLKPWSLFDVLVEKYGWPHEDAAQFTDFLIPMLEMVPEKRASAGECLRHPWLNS

[35] = target: T33, PEK (Homo sapiens, UniProt Q9NZJ5); assay: IMAP Assay
T33 construct: purchased Carna Biosciences

[36] = target: T34, FGFR1(V561M) (Homo sapiens, UniProt P11362, V561M); assay: mobility shift assay
T34 construct: purchased Carna Biosciences

[37] = target: T35, PLK2 (Homo sapiens, UniProt Q9NYY3); assay: IMAP Assay
T35 construct: purchased Carna Biosciences

[38] = target: T36, Nuak2 (Homo sapiens, UniProt Q9H093); assay: mobility shift assay
T36 construct: purchased Carna Biosciences

[39] = system: TRK1; assay: mobility shift assay; conditions: 10 μM
[40] = target: T37, KIT(D816E) (Homo sapiens, UniProt P10721, D816E); assay: mobility shift assay
T37 construct: purchased Carna Biosciences

Structure (SMILES): C[C@@H]1CC[C@H]2C(C)(C)CCC[C@]2(C)c2c1oc1c(C=O)c(O)c(O)cc21 [LG-1, liphagal]
- inhibition at 10 µM [1]: 8.7%
- inhibition at 10 µM [2]: 17.4%
- inhibition at 10 µM [3]: 0.8%
- inhibition at 10 µM [4]: 14%
- inhibition at 10 µM [5]: -3.6%
- inhibition at 10 µM [6]: 15.3%
- inhibition at 10 µM [7]: 42.5%
- inhibition at 10 µM [8]: -4.9%
- inhibition at 10 µM [9]: -5.6%
- inhibition at 10 µM [10]: 0.5%
- inhibition at 10 µM [11]: 23.1%
- inhibition at 10 µM [12]: -24.7%
- inhibition at 10 µM [13]: 1.5%
- inhibition at 10 µM [14]: 8.7%
- inhibition at 10 µM [15]: 6%
- inhibition at 10 µM [16]: 10.6%
- inhibition at 10 µM [17]: 8.7%
- inhibition at 10 µM [18]: 31.1%
- inhibition at 10 µM [19]: 1.6%
- % Inhibition [20]: 48.8%
- inhibition at 10 µM [21]: 1.8%
- inhibition at 10 µM [22]: 1.2%
- inhibition at 10 µM [23]: 4.8%
- IC50 [24]: 6.78 µM
- inhibition at 10 µM ([25]; COK6/CycD3): 72.7%
- inhibitory activity against CDK6 ([25]; in words, 10 μM): Potent inhibitory activity
- inhibition at 10 µM [26]: -2.8%
- inhibition at 10 µM [27]: 33.7%
- inhibition at 10 µM [28]: -5.8%
- inhibition at 10 µM [29]: -8.4%
- inhibition at 10 µM [30]: 5.1%
- inhibition at 10 µM [31]: 15.8%
- inhibition at 10 µM [32]: 4.1%
- inhibition at 10 µM [33]: 52.5%
- inhibition at 10 µM [34]: 9.7%
- inhibition at 10 µM [35]: 13.2%
- inhibition at 10 µM [36]: -12.6%
- inhibition at 10 µM [37]: 19.7%
- inhibition at 10 µM [38]: 1.5%
- % Inhibition [39]: −0.5%
- inhibition at 10 µM [40]: 19.4%
